IC50, Activity and selectivity ratio data for 12 compounds are collected here from ChEMBL document CHEMBL5523764, “Discovery of NO Donor-Aurovertin Hybrids as Dual Ferroptosis and Apoptosis Inducers for Treating Triple Negative Breast Cancer” (J Med Chem, 2024).

Where only a bound is given, the exact number is not on record here.

In series [1] the test system is MDA-MB-231. Kind of series: Antiproliferative activity against human MDA-MB-231 cells assessed as reduction in cell viability incubated for 72 hrs by MTT assay. As to conditions: MDA-MB-231, 72 h. The class given is functional, cell-based. For orientation: Tetrazolium dyes change colour on reduction, which living cells bring about.
Series [2] deals with MDA-MB-231. Kind of series: Induction of NO release in human MDA-MB-231 cells assessed NO concentration by Griess reagent based assay. The format is functional.
Series [3] is described as follows: Selectivity index, ratio of IC50 for cytotoxicity against human MCF-10A cells to IC50 for antiproliferative activity against human MDA-MB-231 cells. Particulars: MCF-10A cells versus MDA-MB-231 cells, read-out: Ratio IC50. The format is toxicity, cell-based.
The next series deals with 4T1. Kind of series: Antiproliferative activity against mouse 4T1 cells assessed as reduction in cell viability incubated for 72 hrs by MTT assay. As to conditions: 4T1, 72 h. The class given is functional, cell-based.
Series [4] in a line: Cytotoxicity against human MCF-10A cells assessed as reduction in cell viability incubated for 72 hrs by MTT assay. The class given is toxicity, cell-based.

With `CC[C@H]1O[C@@]2(C)[C@H](OC(C)=O)[C@@]1(C)O[C@@H](/C=C/C=C/C=C/c1oc(=O)cc(OC)c1C)[C@@H]2OC(=O)CCCC(=O)OCc1c(-c2ccccc2)no[n+]1[O-]`, the IC50 – broadly, the concentration needed to halve the response being measured – in the series with MDA-MB-231 [1] was determined as 9.93 µM. The compound further displayed an Activity with MDA-MB-231 [2] of 1.93 µM.

Consider `N=C(N)NCCC[C@H](N)C(=O)O` [ARGININE], for which the Activity in the series with MDA-MB-231 [2] came out at 1.31 µM.

On to `CC[C@H]1O[C@@]2(C)[C@H](OC(C)=O)[C@@]1(C)O[C@@H](/C=C/C=C/C=C/c1oc(=O)cc(OC)c1C)[C@@H]2OC(=O)CCCC(=O)OCc1c(CSC[C@@H](NC(C)=O)C(=O)O)no[n+]1[O-]`, for which the IC50 in the series with MDA-MB-231 [1] is over 10 µM. The Activity with MDA-MB-231 [2] was 1.71 µM.

`CC[C@H]1O[C@]2(C)C(OC(=O)CCCC(=O)OCc3c(CSCCCO)no[n+]3[O-])[C@H](/C=C/C=C/C=C/c3oc(=O)cc(OC)c3C)O[C@]1(C)[C@H]2OC(C)=O` (single isomer, unassigned): the IC50 with MDA-MB-231 [1] was over 10 µM. Further, in the series on MDA-MB-231 [2], the Activity came out at 2.02 µM.

`CC[C@H]1O[C@]2(C)C(OC(=O)CCCC(=O)OCc3c(CSCCC(=O)O)no[n+]3[O-])[C@H](/C=C/C=C/C=C/c3oc(=O)cc(OC)c3C)O[C@]1(C)[C@H]2OC(C)=O` (single isomer, unassigned): the IC50 in the series on MDA-MB-231 [1] is over 10 µM. Moreover, the Activity with MDA-MB-231 [2] is 1.89 µM.

On to `CC[C@H]1O[C@@]2(C)[C@H](OC(C)=O)[C@@]1(C)O[C@@H](/C=C/C=C/C=C/c1oc(=O)cc(OC)c1C)[C@@H]2OC(=O)CCC(=O)OCCOCCOc1no[n+]([O-])c1S(=O)(=O)c1ccccc1`, for which the concentration for half-maximal inhibition (IC50) with MDA-MB-231 [1] came out at 1.75 µM; in the series on 4T1 it was 2.7 µM. In addition, the selectivity ratio in series [3] was over 28. Besides, in series [4], the IC50 at 72 h was over 50 µM.

For `CC[C@H]1O[C@@]2(C)[C@H](OC(C)=O)[C@@]1(C)O[C@@H](/C=C/C=C/C=C/c1oc(=O)cc(OC)c1C)[C@@H]2OC(=O)CCCC(=O)OCc1c(CSCC(=O)O)no[n+]1[O-]`, the half-maximal inhibitory concentration (IC50) in the series on MDA-MB-231 [1] is over 10 µM. Further, the Activity in the series with MDA-MB-231 [2] is 1.76 µM.

Consider `CC[C@H]1O[C@@]2(C)[C@H](OC(C)=O)[C@@]1(C)O[C@@H](/C=C/C=C/C=C/c1oc(=O)cc(OC)c1C)[C@@H]2OC(=O)CCC(=O)ONC(=O)COCCOc1no[n+]([O-])c1S(=O)(=O)c1ccccc1`, for which the figures for the IC50 in the series on MDA-MB-231 [1] and in the series on 4T1 were 1.5 µM and 3.42 µM, respectively. Moreover, the selectivity ratio in series [3] was over 33. Further, the IC50 at 72 h in series [4] is over 50 µM.

Take `CC[C@H]1O[C@@]2(C)[C@H](OC(C)=O)[C@@]1(C)O[C@@H](/C=C/C=C/C=C/c1oc(=O)cc(OC)c1C)[C@@H]2OC(=O)CCC(=O)ONC(=O)CCCCCOc1no[n+]([O-])c1S(=O)(=O)c1ccccc1`: the IC50 in the series with MDA-MB-231 [1] is 1.05 µM; with 4T1 it was 1.89 µM. Further, the selectivity ratio in series [3] was over 48. In series [4], the concentration for half-maximal inhibition (IC50) at 72 h was over 50 µM.

As for `CC[C@H]1O[C@]2(C)C(OC(=O)CCC(=O)OCc3cccc(Oc4no[n+]([O-])c4S(=O)(=O)c4ccccc4)c3)[C@H](/C=C/C=C/C=C/c3oc(=O)cc(OC)c3C)O[C@]1(C)[C@H]2OC(C)=O` (single isomer, unassigned), the IC50 in the series on MDA-MB-231 [1] is over 10 µM. The compound also returned an Activity in the series on MDA-MB-231 [2] of 2.15 µM.

As for `CC[C@H]1O[C@]2(C)C(OC(=O)CCC(=O)OCc3ccc(Oc4no[n+]([O-])c4S(=O)(=O)c4ccccc4)cc3)[C@H](/C=C/C=C/C=C/c3oc(=O)cc(OC)c3C)O[C@]1(C)[C@H]2OC(C)=O` (single isomer, unassigned), the figures for the 50% inhibitory concentration (IC50) in the series on MDA-MB-231 [1] and in the series on 4T1 were 5.88 µM and over 10 µM, respectively. Besides, the Activity with MDA-MB-231 [2] is 2.44 µM.

For `CC(=O)O[C@H]1C(=O)[C@@]2(C)[C@H]([C@H](OC(=O)c3ccccc3)[C@]3(O)C[C@H](OC(=O)[C@H](O)[C@@H](NC(=O)c4ccccc4)c4ccccc4)C(C)=C1C3(C)C)[C@]1(OC(C)=O)CO[C@@H]1C[C@@H]2O` [PACLITAXEL], the 50% inhibitory concentration (IC50) in the series on MDA-MB-231 [1] was found to be 4.55 µM; in the series with 4T1, 3.84 µM. For the same compound, the selectivity ratio in series [3] was found to be 1.7. The IC50 at 72 h in series [4] was found to be 7.82 µM.
